Columns and labels:
Test in all cases: relative viability (nuclei count vs DMSO), 5 days (fraction); higher = more cells survive
[1] = compound: Cc1ccc(C(=O)Nc2ccc(CN3CCN(C)CC3)c(C(F)(F)F)c2)cc1C#Cc1cnc2cccnn12 [Ponatinib] + Cc1nc(Nc2ncc(C(=O)Nc3c(C)cccc3Cl)s2)cc(N2CCN(CCO)CC2)n1 [Dasatinib] (partner 0.075 µM)
How it was run: (§1)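 Relative viability equals treated-well nuclei counts divided by vehicle-well nuclei counts. Counts came from 4× images of lung cancer cell lines grown in 1536-well plates for 5 days after pin-tool dosing on the day after seeding. Dosing used one drug alone or a fixed anchor-drug dose plus five library-drug doses (not always all listed) in √10 steps, and values are medians of duplicate plates.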

[2] = compound: Cc1ccc(C(=O)Nc2ccc(CN3CCN(C)CC3)c(C(F)(F)F)c2)cc1C#Cc1cnc2cccnn12 [Ponatinib] + CC(=O)c1c(C)c2cnc(Nc3ccc(N4CCNCC4)cn3)nc2n(C2CCCC2)c1=O [Palbociclib] (partner 0.5 µM)
How it was run: as §1

[3] = compound: Cc1ccc(C(=O)Nc2ccc(CN3CCN(C)CC3)c(C(F)(F)F)c2)cc1C#Cc1cnc2cccnn12 [Ponatinib] + CC(=O)Nc1cccc(-n2c(=O)n(C3CC3)c(=O)c3c(Nc4ccc(I)cc4F)n(C)c(=O)c(C)c32)c1 [Trametinib] (partner 0.02 µM)
How it was run: as §1

[4] = compound: Cc1ccc(C(=O)Nc2ccc(CN3CCN(C)CC3)c(C(F)(F)F)c2)cc1C#Cc1cnc2cccnn12 [Ponatinib] + C[C@]1(O)C[C@@H](c2nc(-c3ccc4ccc(-c5ccccc5)nc4c3)c3c(N)nccn32)C1 [Linsitinib] (partner 1 µM)
How it was run: as §1

[5] = compound: Cc1ccc(C(=O)Nc2ccc(CN3CCN(C)CC3)c(C(F)(F)F)c2)cc1C#Cc1cnc2cccnn12 [Ponatinib] + CC1(C)CCC(c2ccc(Cl)cc2)=C(CN2CCN(c3ccc(C(=O)NS(=O)(=O)c4ccc(N[C@H](CCN5CCOCC5)CSc5ccccc5)c(S(=O)(=O)C(F)(F)F)c4)cc3)CC2)C1 [Navitoclax] (partner 0.5 µM)
How it was run: as §1

| Cell Line | relative viability ([1]; first compound 0.002 µM) | relative viability ([1]; first compound 0.006325 µM) | relative viability ([1]; first compound 0.06325 µM) | relative viability ([1]; first compound 0.2 µM) | relative viability ([2]; first compound 0.002 µM) | relative viability ([2]; first compound 0.006325 µM) | relative viability ([2]; first compound 0.06325 µM) | relative viability ([2]; first compound 0.2 µM) | relative viability ([3]; first compound 0.002 µM) | relative viability ([3]; first compound 0.006325 µM) | relative viability ([3]; first compound 0.06325 µM) | relative viability ([3]; first compound 0.2 µM) | relative viability ([4]; first compound 0.002 µM) | relative viability ([4]; first compound 0.006325 µM) | relative viability ([4]; first compound 0.06325 µM) | relative viability ([4]; first compound 0.2 µM) | relative viability ([5]; first compound 0.002 µM) | relative viability ([5]; first compound 0.006325 µM) | relative viability ([5]; first compound 0.06325 µM) | relative viability ([5]; first compound 0.2 µM) |
| --- | --- | --- | --- | --- | --- | --- | --- | --- | --- | --- | --- | --- | --- | --- | --- | --- | --- | --- | --- | --- |
| NCI-H2023 | 0.494 | 0.522 | 0.807 | 0.409 | 0.447 | 0.456 | 0.402 | 0.438 | 0.555 | 0.625 | 0.64 | 0.523 | 0.666 | 0.711 | 0.781 | 0.601 | 0.968 | 0.946 | 1.1 | 1 |
| NCI-H2085 | 0.268 | 0.261 | 0.221 | 0.237 | 0.466 | 0.458 | 0.509 | 0.509 | 0.482 | 0.557 | 0.675 | 0.568 | 0.831 | 0.831 | 1.09 | 0.741 | 1.1 | 1.16 | 1.28 | 1.16 |
| NCI-H2087 | 0.83 | 0.743 | 0.798 | 0.525 | 0.259 | 0.25 | 0.259 | 0.329 | 0.217 | 0.201 | 0.131 | 0.153 | 0.632 | 0.761 | 0.761 | 0.893 | 0.825 | 0.771 | 0.864 | 0.995 |
| NCI-H2126 | 0.554 | 0.564 | 0.65 | 0.531 | 0.365 | 0.34 | 0.374 | 0.333 | 0.564 | 0.576 | 0.691 | 0.578 | 0.735 | 0.703 | 0.793 | 0.809 | 0.823 | 0.871 | 0.963 | 0.848 |
| NCI-H2228 | 0.372 | 0.515 | 0.462 | 0.393 | 0.587 | 0.647 | 0.728 | 0.593 | 0.546 | 0.656 | 0.495 | 0.547 | 0.652 | 0.711 | 0.874 | 0.73 | 1.18 | 1.01 | 1.43 | 0.811 |
| NCI-H2347 | 0.302 | 0.301 | 0.404 | 0.362 | 0.504 | 0.441 | 0.451 | 0.404 | 0.241 | 0.272 | 0.332 | 0.264 | 0.913 | 0.918 | 1.05 | 0.974 | 0.684 | 0.834 | 0.899 | 0.719 |
| NCI-H2405 | 0.17 | 0.206 | 0.187 | 0.202 | 0.487 | 0.476 | 0.501 | 0.473 | 0.557 | 0.611 | 0.435 | 0.342 | 0.98 | 0.958 | 0.903 | 0.712 | 0.855 | 0.917 | 0.844 | 0.62 |
| NCI-H3122 | 0.773 | 0.85 | 0.838 | 0.809 | 0.194 | 0.186 | 0.213 | 0.203 | 0.256 | 0.199 | 0.241 | 0.209 | 0.982 | 1.02 | 1.01 | 1.06 | 1.04 | 1.03 | 1.04 | 1.01 |
| PC-3 [JPC-3] | 0.99 | 0.981 | 1.12 | 0.917 | – | 0.576 | 0.608 | 0.544 | – | 0.769 | 0.88 | 0.699 | 0.981 | 0.984 | 0.992 | 0.956 | 0.792 | 0.754 | 0.902 | 0.748 |
| PC-14 | 0.244 | 0.24 | 0.292 | 0.248 | 0.464 | 0.533 | 0.73 | 0.584 | 0.701 | 0.727 | 0.859 | 0.794 | 0.927 | 0.91 | 1.13 | 1.01 | 0.927 | 1 | 1.14 | 0.919 |
| RERF-LC-KJ | 0.707 | 0.824 | 0.93 | 0.844 | 1.11 | 1.22 | 1.27 | 0.971 | 0.826 | 0.803 | 1.03 | 0.852 | 0.842 | 0.907 | 0.914 | 0.827 | 1.09 | 0.968 | 1.07 | 1.06 |
| SK-LU-1 | 0.19 | 0.178 | 0.172 | 0.137 | 0.378 | 0.415 | 0.342 | 0.353 | 0.469 | 0.554 | 0.393 | 0.347 | 0.943 | 1.19 | 1.18 | 0.997 | 0.702 | 0.792 | 0.902 | 0.453 |
| SK-MES-1 | 0.32 | 0.413 | 0.455 | 0.33 | 0.36 | 0.379 | 0.405 | 0.327 | 0.629 | 0.693 | 0.511 | 0.454 | 0.99 | 1.12 | 1.12 | 1.07 | 1.25 | 1.12 | 1.3 | 1.19 |
| SW 1573 | 0.451 | 0.507 | 0.466 | 0.485 | 0.411 | 0.402 | 0.341 | 0.401 | 0.6 | 0.595 | 0.591 | 0.577 | 0.838 | 0.775 | 0.777 | 0.819 | 1.02 | 0.989 | 1.03 | 0.901 |
| UMC-11 | 0.465 | 0.451 | 0.51 | 0.465 | – | 0.312 | 0.287 | 0.346 | 0.648 | 0.638 | 0.822 | 0.709 | 1.02 | 1.03 | 1.16 | 1.03 | 0.311 | 0.354 | 0.38 | 0.345 |

Reference: the supplement of paper PMC10307832
